For assay [1], the target named is T1, WEE1 (Homo sapiens, UniProt P30291).
T1 construct: purchased Thermo Fisher PR7373A
The experiment in a line: Selectivity versus WEE1 assay (ADP-Glo enzymatic assay). Particulars: for IC50: ADP-Glo; for PKMYT1 vs. WEE1 selectivity: fold difference in selectivity for PKMYT1 over WEE1. It is filed as biochemical. The method, then:
Selectivity versus WEE1 assay: Selectivity was established using the same format as outlined for PKMYT1. After dosing of compounds via the Echo acoustic dispenser—as described above—WEE1 (Thermo Fisher PR7373A) was added to each well at a final concentration of 15 nM in a buffer of 50 mM HEPES (pH 7.5), 10 mM MgCl2, 1 mM EGTA, 0.01% Brij-35, 1% DMSO. 30 µM ATP was added to start the reaction with the final assay volume being 4 μl. The plate was then incubated for 60 minutes at 26° C. before the addition of 4 μl of ADP-Glo Reagent. Following a further 60 minute incubation the assay signal was developed by the addition of 8 μl ADP-Glo Detection Reagent. After 60 minutes the luminescence signal was read on a PHERAStar FS microplate reader (BMG Labtech).
(§1) Data analysis: Data was captured and analysed within the Dotmatics Studies software module where dose response curves were generated and IC50 values determined. Acceptance and verification of data followed strict in-house business rules which are summarised as follows. […] Technical and biological replicates of each compound are routinely tested and replicate IC50 values must fall within 3-fold of each other with dose response curves showing ‘goodness of fit’ r2 values >0.9. Failure to meet any of these defined criteria result in rejection of data.
A general note: ADP-Glo turns the ADP formed in a reaction into a luminescent signal.

The target in assay [2] is T2, Human PKMYT1 (Homo sapiens, UniProt Q99640).
T2 construct: Human PKMYT1 75-362 was cloned as a TEV cleavable 6xHis fusion; 6xHis (TEV cleavable) (cleaved yes); made in house; host or cells: bacterial cells
T2 sequence (Q99640 75-362): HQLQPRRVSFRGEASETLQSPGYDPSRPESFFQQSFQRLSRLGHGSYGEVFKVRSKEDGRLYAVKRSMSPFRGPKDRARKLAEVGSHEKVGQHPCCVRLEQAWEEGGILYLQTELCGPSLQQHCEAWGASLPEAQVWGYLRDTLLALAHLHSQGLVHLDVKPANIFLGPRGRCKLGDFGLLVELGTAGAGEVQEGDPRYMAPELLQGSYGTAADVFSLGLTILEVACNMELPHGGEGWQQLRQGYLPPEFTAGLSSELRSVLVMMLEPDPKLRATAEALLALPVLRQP
Nature of the assay: PKMYT1 biochemical ADP-Glo enzymatic assay. Particulars: ADP-Glo. The method, then: Human PKMYT1 75-362 was cloned as a TEV cleavable 6xHis fusion in bacterial cells. After purification on a Ni++HiTrap Chelating HP column, the His-tag was cleaved using TEV protease. Cleaved PKMYT1 was further purified on a Superdex 200 16/600 sizing column. The fractions containing PKMYT1 were pooled and concentrated using an ultrafiltration centrifugal protein concentrator. The purified protein was aliquoted, flash frozen in liquid nitrogen, and stored at −80° C.
PKMYT1 biochemical assay: Inhibition of PKMYT1 was assessed using the ADP-Glo™ Max Detection System from Promega. This assay detects the production of ADP from ATP by PKMYT1 via a two-step process ultimately involving the conversion of ADP to ATP with the latter converted to light in a coupled reaction with luciferase/luciferin. Inhibition of PKMYT1 by small molecule inhibitors results in a retardation of luminescence above background. The intrinsic ATPase activity of PKMYT1 was assessed according to the following protocol. Compounds were dosed into Corning white low volume 384 well assay plates using an Echo acoustic dispenser to generate 10-point curves spanning a 3-fold dilution series. DMSO (no inhibitor) control wells were prepared to benchmark the maximum and minimum signals in the presence and absence of PKMYT1, respectively. The PKMYT1 kinase domain was purified in-house, as described above, and added to the wells at a final concentration of 15 nM in a buffer of 50 mM HEPES (pH 7.5), 10 mM MgCl2, 1 mM EGTA, 0.01% Brij-35, 1% DMSO. 500 µM ATP was added to start the reaction with the final assay volume being 4 μl. The plate was then incubated for 60 minutes at 26° C. before the addition of 4 μl of ADP-Glo Reagent to stop the reaction and deplete the unconsumed ATP. Following a further 60 minute incubation the assay signal was developed by the addition of 8 μl ADP-Glo Max Detection Reagent. After 60 minutes the luminescence signal was read on a PHERAStar FS microplate reader (BMG Labtech).
as §1

Where [3] appears, read: 15 nM WEE1, 60 minutes at 26° C., banded.
The mark [4] stands for this setting: banded, ">N" = at least in this band but could be higher.
The mark [5] stands for this setting: 15 nM PKMYT1 kinase domain, 500 µM ATP, 60 minutes at 26° C., banded.
Setting [6] is: PKMYT1 kinase domain 15 nM, banded values.

Where a name gives a salt, the structure may show the parent alone.

For orientation: IC50 means the concentration that gives 50% inhibition.

T1 sequence (P30291 whole entry): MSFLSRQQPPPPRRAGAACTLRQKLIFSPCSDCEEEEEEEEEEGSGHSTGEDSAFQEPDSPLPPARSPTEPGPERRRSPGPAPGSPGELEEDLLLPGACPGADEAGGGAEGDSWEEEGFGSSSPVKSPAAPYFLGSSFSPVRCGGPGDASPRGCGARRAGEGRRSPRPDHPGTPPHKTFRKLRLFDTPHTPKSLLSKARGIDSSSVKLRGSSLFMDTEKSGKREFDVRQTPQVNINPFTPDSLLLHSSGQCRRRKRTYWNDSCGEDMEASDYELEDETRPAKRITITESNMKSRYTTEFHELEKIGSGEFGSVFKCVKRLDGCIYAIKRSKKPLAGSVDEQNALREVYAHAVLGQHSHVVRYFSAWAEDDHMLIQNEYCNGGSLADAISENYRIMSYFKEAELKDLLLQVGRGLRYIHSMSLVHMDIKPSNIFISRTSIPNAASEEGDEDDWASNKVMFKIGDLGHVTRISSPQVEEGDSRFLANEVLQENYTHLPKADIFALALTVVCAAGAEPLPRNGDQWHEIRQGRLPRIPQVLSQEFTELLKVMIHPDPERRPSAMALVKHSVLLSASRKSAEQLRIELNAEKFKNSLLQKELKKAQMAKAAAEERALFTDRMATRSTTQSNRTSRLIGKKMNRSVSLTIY

Consider `Cc1ccc(O)c(C)c1NC(=O)c1cnc(Nc2ccc(NC(=O)c3c(F)cc(F)cc3F)cn2)s1` [BAA-302, N-(3-hydroxy-2,6-dimethylphenyl)-2-((5-(2,4,6-trifluorobenzamido)pyridin-2-yl)amino)thiazole-5-carboxamide], for which the IC50 was more than 11 µM in assay [1] (setting [3]) and 50 to 1000 nM in assay [2] (setting [5]). The “PKMYT1 vs. WEE1 selectivity” value in assay [1] (setting [4]) is on record as “X (100-<1000 fold)”.
Turning to `Cc1ccc(O)c(C)c1NC(=O)c1cnc(Nc2ccn(CC(=O)N3CCC[C@@H](O)C3)n2)s1` [BAA-161], the IC50 was more than 11 µM in assay [1] (setting [3]) and less than 50 nM in assay [2] (setting [5]). Also, the “PKMYT1 vs. WEE1 selectivity” value in assay [1] (setting [4]) is listed as “Y (1000-5000 fold)”.
On the same counts, the results for `Cc1ccc(O)c(C)c1NC(=O)c1cnc(Nc2ccnn2CCN)s1` [BAA-260, 2-((1-(2-aminoethyl)-1H-pyrazol-5-yl)amino)-N-(3-hydroxy-2,6-dimethylphenyl)thiazole-5-carboxamide] are more than 11 µM, 50 to 1000 nM and “W (10-<100 fold)”.
On the same counts, the results for `Cc1ccc(O)c(C)c1NC(=O)c1cnc(Nc2nncs2)s1` [BAA-028, N-(3-hydroxy-2,6-dimethyl-phenyl)-2-(1,3,4-thiadiazol-2-ylamino)thiazole-5-carboxamide] are more than 11 µM, less than 50 nM and “X (100-<1000 fold)”.
On the same counts, the results for `Cc1ccc(O)c(C)c1NC(=O)c1cnc(Nc2ccn(CC(=O)N3CCN(C4CCCCC4)CC3)n2)s1` [BAA-187] are more than 11 µM, less than 50 nM and “Y (1000-5000 fold)”.
For `Cc1ccc(O)c(C)c1NC(=O)c1cnc(Nc2cc(C(=O)N(C)C)n(C)n2)s1` [BAA-120, 2-[[5-(dimethylcarbamoyl)-1-methyl-pyrazol-3-yl]amino]-N-(3-hydroxy-2,6-dimethyl-phenyl)thiazole-5-carboxamide], the IC50 in assay [1] (setting [3]) was in the range of 1 to 11 µM; in assay [2] (setting [5]) it was 50 to 1000 nM. Moreover, the “PKMYT1 vs. WEE1 selectivity” value in assay [1] (setting [4]) is given as “X (100-<1000 fold)”.
On the same counts, the results for `Cc1ccc(O)c(C)c1NC(=O)c1cnc(Nc2sccc2C(N)=O)s1` [BAA-021, 2-[(3-carbamoyl-2-thienyl)amino]-N-(3-hydroxy-2,6-dimethyl-phenyl)thiazole-5-carboxamide] are more than 11 µM, 50 to 1000 nM and “>X (100-<1000 fold)”.
On the same counts, the results for `Cc1ccc(O)c(C)c1NC(=O)c1cnc(Nc2ccn(CC(=O)NC3CCCCC3)n2)s1` [BAA-193] are more than 11 µM, less than 50 nM and “Y (1000-5000 fold)”.
On the same counts, the results for `Cc1ccc(O)c(C)c1NC(=O)c1cnc(Nc2ccn([C@@H]3CCN(CCc4ccccc4)C3)n2)s1` [BAA-115] are more than 11 µM, 50 to 1000 nM and “>X (100-<1000 fold)”.
As to `Cc1ccc(O)c(C)c1NC(=O)c1cnc(Nc2ncccc2C#N)s1` [BAA-408, 2-((3-cyanopyridin-2-yl)amino)-N-(3-hydroxy-2,6-dimethylphenyl)thiazole-5-carboxamide], the IC50 was more than 11 µM in assay [1] (WEE1 15 nM, banded values) and 50 to 1000 nM in assay [2] (setting [6]). Moreover, the “PKMYT1 vs. WEE1 selectivity” value in assay [1] (banded) is “X (100-<1000 fold)”.
As for `Cc1cn(C2CNC2)nc1Nc1ncc(C(=O)Nc2c(C)ccc(O)c2C)s1` [BAA-273, 2-((1-(azetidin-3-yl)-4-methyl-1H-pyrazol-3-yl)amino)-N-(3-hydroxy-2,6-dimethylphenyl)thiazole-5-carboxamide hydrochloride], the 50% inhibitory concentration (IC50) in assay [1] (setting [3]) was 0.05 to 1 µM; in assay [2] (setting [5]), less than 50 nM. For the same compound, the “PKMYT1 vs. WEE1 selectivity” value in assay [1] (setting [4]) is “W (10-<100 fold)”.
On the same counts, the results for `CCOC(=O)Cn1ccc(Nc2ncc(C(=O)Nc3c(C)ccc(O)c3C)s2)n1` [BAA-023] are 1 to 11 µM, less than 50 nM and “X (100-<1000 fold)”.
Consider `Cc1conc1Nc1ncc(C(=O)Nc2c(C)ccc(O)c2C)s1` [BAA-440, N-(3-hydroxy-2,6-dimethylphenyl)-2-((4-methylisoxazol-3-yl)amino)thiazole-5-carboxamide], for which the IC50 in assay [1] (WEE1 15 nM, banded values) is 1 to 11 µM; in assay [2] (setting [6]) it was less than 50 nM. Moreover, the “PKMYT1 vs. WEE1 selectivity” value in assay [1] (banded) was “X (100-<1000 fold)”.
Turning to `Cc1ccc(O)c(C)c1NC(=O)c1cnc(Nc2cc(C)n(CCC(N)=O)n2)s1` [BAA-239, 2-((1-(3-amino-3-oxopropyl)-5-methyl-1H-pyrazol-3-yl)amino)-N-(3-hydroxy-2,6-dimethylphenyl)thiazole-5-carboxamide], the IC50 lay in the range of 1 to 11 µM in assay [1] (setting [3]) and 50 to 1000 nM in assay [2] (setting [5]). Besides, the “PKMYT1 vs. WEE1 selectivity” value in assay [1] (setting [4]) is on record as “W (10-<100 fold)”.
On the same counts, the results for `Cc1cc(Nc2ncc(C(=O)Nc3c(C)ccc(O)c3C)s2)n(CCC(N)=O)n1` [BAA-240, 2-((1-(3-amino-3-oxopropyl)-3-methyl-1H-pyrazol-5-yl)amino)-N-(3-hydroxy-2,6-dimethylphenyl) thiazole-5-carboxamide] are more than 11 µM, 50 to 1000 nM and “X (100-<1000 fold)”.
For `Cc1ccc(O)c(C)c1NC(=O)c1cnc(Nc2ncc(C(F)(F)F)o2)s1` [BAA-437, N-(3-hydroxy-2,6-dimethylphenyl)-2-((5-(trifluoromethyl)oxazol-2-yl)amino)thiazole-5-carboxamide], the IC50 in assay [1] (WEE1 15 nM, banded values) is more than 11 µM; in assay [2] (setting [6]), 1000 to 11000 nM. The “PKMYT1 vs. WEE1 selectivity” value in assay [1] (banded) is listed as “W (10-<100 fold)”.
For the compound `Cc1ccc(O)c(C)c1NC(=O)c1cnc(Nc2ccn(CC(F)(F)F)n2)s1` [BAA-019, N-(3-hydroxy-2,6-dimethyl-phenyl)-2-[[1-(2,2,2-trifluoroethyl)pyrazol-3-yl]amino]thiazole-5-carboxamide], the IC50 in assay [1] (setting [3]) is more than 11 µM; in assay [2] (setting [5]) it was 50 to 1000 nM. Moreover, the “PKMYT1 vs. WEE1 selectivity” value in assay [1] (setting [4]) is “X (100-<1000 fold)”.
In the case of `Cc1cnc(Nc2ncc(C(=O)Nc3c(C)ccc(O)c3C)s2)s1` [BAA-262, N-(3-hydroxy-2,6-dimethylphenyl)-2-((5-methylthiazol-2-yl)amino)thiazole-5-carboxamide], the figures for the IC50 in assay [1] (setting [3]) and in assay [2] (setting [5]) were more than 11 µM and less than 50 nM, respectively. Further, the “PKMYT1 vs. WEE1 selectivity” value in assay [1] (setting [4]) is on record as “X (100-<1000 fold)”.
`CCN(CC)C(=O)Cn1nc(Nc2ncc(C(=O)Nc3c(C)ccc(O)c3C)s2)cc1C` [BAA-204, 2-[[1-[2-(diethylamino)-2-oxo-ethyl]-5-methyl-pyrazol-3-yl]amino]-N-(3-hydroxy-2,6-dimethyl-phenyl)thiazole-5-carboxamide]: the results for the IC50 in assay [1] (setting [3]) and in assay [2] (setting [5]) were more than 11 µM and less than 50 nM, respectively. Moreover, the “PKMYT1 vs. WEE1 selectivity” value in assay [1] (setting [4]) was “Z (>5000 fold)”.
Turning to `Cc1ccc(O)c(C)c1NC(=O)c1cnc(Nc2cc(C)n(C(C)C(=O)N3CCN(C)CC3)n2)s1` (stereo not drawn) [BAA-511, N-(3-hydroxy-2,6-dimethylphenyl)-2-((5-methyl-1-(1-(4-methylpiperazin-1-yl)-1-oxopropan-2-yl)-1H-pyrazol-3-yl)amino)thiazole-5-carboxamide], the IC50 in assay [1] (WEE1 15 nM, banded values) is more than 11 µM; in assay [2] (setting [6]), 50 to 1000 nM. The “PKMYT1 vs. WEE1 selectivity” value in assay [1] (banded) is given as “W (10-<100 fold)”.

The values above are taken from patent US20260297042A1, “BIARYLAMIDE DERIVATIVES AND THEIR USE AS PKMYT1 INHIBITORS” (CANCER RESEARCH TECHNOLOGY LIMITED, priority 2023, published 2026).
